Columns and labels:
[1] = system: corn; assay: Test B pre/postemergence corn; format: in vivo, Zea mays; conditions: for Corn plant response rating: scale of 0 to 10 where 0 is no effect and 10 is complete control
In short: (§1)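 Test chemicals in a non-phytotoxic solvent mixture with surfactant were sprayed preemergence onto planted seeds and postemergence onto plants 2 to 18 cm tall (1- to 4-leaf stage). After twelve to sixteen days in a greenhouse, injury was visually rated against untreated controls from 0 (no effect) to 10 (complete control).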

[2] = system: pigweed; assay: Test B pre/postemergence pigweed; format: in vivo, Amaranthus retroflexus; conditions: for Redroot pigweed plant response rating: scale of 0 to 10 where 0 is no effect and 10 is complete control
In short: as §1

[3] = system: surinam grass; assay: Test B pre/postemergence surinam grass; format: in vivo, Brachiaria decumbens; conditions: for B. signalgrass plant response rating: scale of 0 to 10 where 0 is no effect and 10 is complete control
In short: as §1

[4] = system: bedstraw; assay: Test B pre/postemergence bedstraw; format: in vivo, Galium aparine; conditions: for Bedstraw plant response rating: scale of 0 to 10 where 0 is no effect and 10 is complete control
In short: as §1

[5] = system: wild oat; assay: Test B pre/postemergence wild oat; format: in vivo, Avena fatua; conditions: for Wild oats plant response rating: scale of 0 to 10 where 0 is no effect and 10 is complete control
In short: as §1

[6] = system: soybean; assay: Test B pre/postemergence soybean; format: in vivo, Glycine max; conditions: for Soybean plant response rating: scale of 0 to 10 where 0 is no effect and 10 is complete control
In short: as §1

[7] = system: purple nutsedge; assay: Test B pre/postemergence purple nutsedge; format: in vivo, Cyperus rotundus; conditions: for Nutsedge plant response rating: scale of 0 to 10 where 0 is no effect and 10 is complete control
In short: as §1

[8] = system: bamyardgrass; assay: Test B flood test barnyardgrass; format: in vivo, Echinochloa crus-galli
In short: (§2)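 Flood test on plants grown to the 2-leaf stage; treated plants kept in greenhouse twelve to sixteen days, then visually rated against controls on a 0 (no effect) to 10 (complete control) scale.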

[9] = system: rice; assay: Test B flood test rice; format: in vivo, Oryza sativa
In short: as §2

[10] = system: blackgrass; assay: Test B pre/postemergence blackgrass; format: in vivo, Alopecurus myosuroides; conditions: for Blackgrass plant response rating: scale of 0 to 10 where 0 is no effect and 10 is complete control
In short: as §1

[11] = system: sugar beet; assay: Test B pre/postemergence sugar beet; format: in vivo, Beta vulgaris; conditions: for Sugarbeets plant response rating: scale of 0 to 10 where 0 is no effect and 10 is complete control
In short: as §1

[12] = system: crabgrass; assay: Test B pre/postemergence crabgrass; format: in vivo, Digitaria sanguinalis; conditions: for Crabgrass plant response rating: scale of 0 to 10 where 0 is no effect and 10 is complete control
In short: as §1

[13] = system: cocklebur; assay: Test B pre/postemergence cocklebur; format: in vivo, Xanthium strumarium; conditions: for Cocklebur plant response rating: scale of 0 to 10 where 0 is no effect and 10 is complete control
In short: as §1

[14] = system: velvetleaf; assay: Test B pre/postemergence velvetleaf; format: in vivo, Abutilon theophrasti; conditions: for Velvetleaf plant response rating: scale of 0 to 10 where 0 is no effect and 10 is complete control
In short: as §1

[15] = system: smallflower flatsedge; assay: Test B flood test smallflower flatsedge; format: in vivo, Cyperus difformis
In short: as §2

[16] = system: giant foxtail; assay: Test B pre/postemergence giant foxtail; format: in vivo, Setaria faberii; conditions: for Giant foxtail plant response rating: scale of 0 to 10 where 0 is no effect and 10 is complete control
In short: as §1

[17] = Postemergence, Rate 125 g/ha, scale 0 to 10, 0 is no effect, 10 is complete control
[18] = Postemergence, Rate 250 g/ha, scale 0 to 10, 0 is no effect, 10 is complete control
[19] = Preemergence, Rate 62 g/ha, scale 0 to 10 (0 no effect, 10 complete control)
[20] = Rate 500 g/ha, Postemergence, scale 0 to 10, 0 no effect, 10 complete control
[21] = Rate 62 g/ha, flood test species, Pre-emergence, visual evaluation after twelve to sixteen days
[22] = Rate 125 g/ha, under heading Pre-emergence, flood test species, visual evaluation after twelve to sixteen days
[23] = Rate 250 g/ha, Pre-emergence, flood-test species, scale 0 to 10, 0 is no effect, 10 is complete control
[24] = Rate 500 g/ha, Pre-emergence, flood test species, scale 0 to 10 (0 no effect, 10 complete control)

Cc1nnsc1Cn1c(=O)on(C(=O)N(c2ccccc2)C(C)C)c1=O [Compound 378]
9: Crabgrass plant response rating ([12]; Preemergence, Rate 250 g/ha)
0: Plant response rating, Corn [1, 17] | Plant response rating, Corn [1, 18] | Plant response rating, Corn [1, 19] | Corn plant response rating (0 to 10 scale) ([1]; Preemergence, Rate 125 g/ha) | Corn plant response rating ([1]; Preemergence, Rate 250 g/ha) | Corn plant response rating ([1]; Preemergence, Rate 500 g/ha) | Corn plant response rating ([1]; Rate 62 g/ha, Postemergence) | Plant response rating, Corn [1, 20] | Plant response rating, Redroot pigweed [2, 17] | Plant response rating, Redroot pigweed [2, 18] | Plant response rating, Redroot pigweed [2, 19] | Redroot pigweed plant response rating (0 to 10 scale) ([2]; Preemergence, Rate 125 g/ha) | Redroot pigweed plant response rating ([2]; Preemergence, Rate 250 g/ha) | Redroot pigweed plant response rating ([2]; Preemergence, Rate 500 g/ha) | Redroot pigweed plant response rating ([2]; Rate 62 g/ha, Postemergence) | Plant response rating, B. signalgrass [3, 17] | Plant response rating, B. signalgrass [3, 18] | Plant response rating, B. signalgrass [3, 19] | B. signalgrass plant response rating (0 to 10 scale, 0 is no effect, 10 is complete control) ([3]; Preemergence, Rate 125 g/ha) | B. signalgrass plant response rating ([3]; Preemergence, Rate 250 g/ha) | B. signalgrass plant response rating ([3]; Preemergence, Rate 500 g/ha) | B. signalgrass plant response rating ([3]; Rate 62 g/ha, Postemergence) | Plant response rating, Bedstraw [4, 18] | Plant response rating, Bedstraw [4, 19] | Bedstraw plant response rating (0 to 10 scale) ([4]; Preemergence, Rate 125 g/ha) | Bedstraw plant response rating ([4]; Preemergence, Rate 250 g/ha) | Bedstraw plant response rating ([4]; Preemergence, Rate 500 g/ha) | Plant response rating, Wild oats [5, 17] | Plant response rating, Wild oats [5, 18] | Plant response rating, Wild oats [5, 19] | Wild oats plant response rating (0 to 10 scale) ([5]; Preemergence, Rate 125 g/ha) | Wild oats plant response rating ([5]; Preemergence, Rate 250 g/ha) | Wild oats plant response rating ([5]; Preemergence, Rate 500 g/ha) | Wild oats plant response rating ([5]; Rate 62 g/ha, Postemergence) | Plant response rating, Wild oats [5, 20] | Plant response rating, Soybean [6, 17] | Plant response rating, Soybean [6, 18] | Plant response rating, Soybean [6, 19] | Soybean plant response rating (0 to 10 scale) ([6]; Preemergence, Rate 125 g/ha) | Soybean plant response rating ([6]; Preemergence, Rate 250 g/ha) | Soybean plant response rating ([6]; Preemergence, Rate 500 g/ha) | Soybean plant response rating ([6]; Rate 62 g/ha, Postemergence) | Plant response rating, Nutsedge [7, 17] | Plant response rating, Nutsedge [7, 18] | Plant response rating, Nutsedge [7, 19] | Nutsedge plant response rating (0 to 10 scale) ([7]; Preemergence, Rate 125 g/ha) | Nutsedge plant response rating ([7]; Preemergence, Rate 250 g/ha) | Nutsedge plant response rating ([7]; Preemergence, Rate 500 g/ha) | Nutsedge plant response rating ([7]; Rate 62 g/ha, Postemergence) | Plant response rating, Nutsedge [7, 20] | Plant response rating, Barnyardgrass (0 to 10 scale, 0 is no effect, 10 is complete control) [8, 21] | Barnyardgrass plant response rating (0 to 10 scale, 0 is no effect, 10 is complete control) [8, 22] | Barnyardgrass plant response rating [8, 23] | Barnyardgrass plant response rating [8, 24] | Plant response rating, Rice (0 to 10 scale, 0 is no effect, 10 is complete control) [9, 21] | Rice plant response rating (0 to 10 scale, 0 is no effect, 10 is complete control) [9, 22] | Rice plant response rating [9, 23] | Rice plant response rating [9, 24] | Plant response rating, Blackgrass [10, 17] | Plant response rating, Blackgrass [10, 18] | Plant response rating, Blackgrass [10, 19] | Blackgrass plant response rating (0 to 10 scale) ([10]; Preemergence, Rate 125 g/ha) | Blackgrass plant response rating ([10]; Preemergence, Rate 250 g/ha) | Blackgrass plant response rating ([10]; Preemergence, Rate 500 g/ha) | Blackgrass plant response rating ([10]; Rate 62 g/ha, Postemergence) | Plant response rating, Sugarbeets [11, 17] | Plant response rating, Sugarbeets [11, 18] | Plant response rating, Sugarbeets [11, 19] | Sugarbeets plant response rating (0 to 10 scale) ([11]; Preemergence, Rate 125 g/ha) | Sugarbeets plant response rating ([11]; Preemergence, Rate 250 g/ha) | Sugarbeets plant response rating ([11]; Preemergence, Rate 500 g/ha) | Sugarbeets plant response rating ([11]; Rate 62 g/ha, Postemergence) | Plant response rating, Sugarbeets [11, 20] | Plant response rating, Crabgrass [12, 17] | Plant response rating, Crabgrass [12, 18] | Plant response rating, Crabgrass [12, 19] | Crabgrass plant response rating ([12]; Rate 62 g/ha, Postemergence) | Plant response rating, Cocklebur [13, 17] | Plant response rating, Cocklebur [13, 18] | Plant response rating, Cocklebur [13, 19] | Cocklebur plant response rating (0 to 10 scale) ([13]; Preemergence, Rate 125 g/ha) | Cocklebur plant response rating ([13]; Preemergence, Rate 250 g/ha) | Cocklebur plant response rating ([13]; Preemergence, Rate 500 g/ha) | Cocklebur plant response rating ([13]; Rate 62 g/ha, Postemergence) | Plant response rating, Velvetleaf [14, 17] | Plant response rating, Velvetleaf [14, 18] | Plant response rating, Velvetleaf [14, 19] | Velvetleaf plant response rating (0 to 10 scale) ([14]; Preemergence, Rate 125 g/ha) | Velvetleaf plant response rating ([14]; Preemergence, Rate 250 g/ha) | Velvetleaf plant response rating ([14]; Preemergence, Rate 500 g/ha) | Velvetleaf plant response rating ([14]; Rate 62 g/ha, Postemergence) | Plant response rating, S. Flatsedge (0 to 10 scale, 0 is no effect, 10 is complete control) [15, 21] | S. Flatsedge plant response rating (0 to 10 scale, 0 is no effect, 10 is complete control) [15, 22] | S. Flatsedge plant response rating [15, 23] | S. Flatsedge plant response rating [15, 24] | Plant response rating, Giant foxtail [16, 17] | Giant foxtail plant response rating ([16]; Rate 62 g/ha, Postemergence)
10: Crabgrass plant response rating ([12]; Preemergence, Rate 500 g/ha) | Giant foxtail plant response rating ([16]; Preemergence, Rate 250 g/ha) | Giant foxtail plant response rating ([16]; Preemergence, Rate 500 g/ha)
2: Plant response rating, Redroot pigweed [2, 20] | Plant response rating, B. signalgrass [3, 20] | Plant response rating, Soybean [6, 20] | Plant response rating, Crabgrass [12, 20]
1: Plant response rating, Cocklebur [13, 20]
8: Plant response rating, Giant foxtail [16, 20]
3: Crabgrass plant response rating (0 to 10 scale) ([12]; Preemergence, Rate 125 g/ha) | Plant response rating, Velvetleaf [14, 20] | Plant response rating, Giant foxtail [16, 18]
4: Plant response rating, Giant foxtail [16, 19] | Giant foxtail plant response rating (0 to 10 scale) ([16]; Preemergence, Rate 125 g/ha)

— US6737383B1, “Herbicidal oxadiazolidines” (priority 1999, dated 2004)
